The source of these data is patent publication US20240401094A1, “SOLID FORM OF (-)-AMBROX FORMED BY A BIOCONVERSION OF HOMOFARNESOL IN THE PRESENCE OF A BIOCATALYST” (Givaudan SA, priority 2016, published 2024).

This assay in a line: Sensory analysis (odour / GC-detection threshold and odour character). Particulars: for odour description: result in words. The source says:
Purpose: to Carry Out a Sensory Analysis of (−)-Ambrox and the Compounds (II), (III) and (IV) Formed in the Crude Material and in the Crystallised Material.

Molecules are shown by their SMILES. Some results are limits rather than exact numbers.

For `CC1(C)CCC[C@]2(C)[C@H]3CCO[C@]3(C)CC[C@@H]12` [(−)-Ambrox], the “Odour Threshold” value (sensory analysis) worked out at 0.2 ng/L.
As to `C/C1=C/CCO[C@@]2(C)CCCC(C)(C)[C@@H]2CC1` [Compound (II)], the detection threshold (as stated in the description) was above 500 ng/L. This molecule displayed a GC-detection threshold (sensory analysis) above 500 ng. For the same molecule, the odour description entry is, setting by setting: (sensory analysis) ““odorless””; (sensory analysis, listed as II) “weaker odour”; (sensory analysis, listed as compound of formula (II)) “practically odourless”.
As for `CC1(C)CCC[C@@]2(C)[C@H]1CC[C@@]1(C)OCC[C@@H]21` [Compound (III), epi-Ambrox], under “compared with (−)-Ambrox”, the “GC-threshold relative to (−)-Ambrox (times higher)” value is reported as “about 10 ×”. The “odor weaker than (−)-Ambrox” value (compared with (−)-Ambrox) was “about 10 fold”. Further, the GC-detection threshold result (sensory analysis) is recorded as “circa 2 ng”. Further, the odour description entry (sensory analysis, listed as Compound III) is listed as “essentially odorless” and the odour description entry (sensory analysis, listed as III) is “weaker odour”.
Regarding `CC1(C)CCC[C@@]2(C)[C@H]1CC[C@]1(C)OCC[C@@H]21` [Compound (IV)], for the setting “sensory analysis”, the GC-detection threshold is 5 to 10 ng and the odour description result was “weak, IsoE, woody”. In addition, the odour description entry (sensory analysis, listed as IV) is given as “weaker odour”.
